Patent US10683553B2, “Method for determining sensitivity to simultaneous inhibitor against PARP and Tankyrase” (THE ASAN FOUNDATION, priority 2015, dated 2020)
“Also recorded” adds a separate entry of the source.

Columns and labels:
[1] = test system: RKO human colon cancer cell line; test: Trypan blue staining apoptosis assay; format: cell-based; details: RKO (p53 WT/LIG4 MT); 25 μM and 50 μM, 48 hours
Description: (§1) In order to analyze the degree of apoptosis of Compound A, which is a novel PARP/Tankyrase simultaneous inhibitor according to a p53 genotype and LIG4 genotype, the present inventors treated a novel PARP/Tankyrase simultaneous inhibitor, Compound A, and a competitive drug PARP inhibitor, olaparib, in RKO, LoVo human colon cancer cell line in which the p53 gene is a normal type and the LIG4 gene is a mutant type and an SW620 human colon cancer cell line in which the p53 gene is a mutant type and the LIG4 gene is a normal type. The number of cells was measured by trypan blue staining assay to confirm the degree of apoptosis. The conditions and methods of the experiment were as follows: RKO, LoVo human colon cancer cell line in which the p53 gene is a normal type and the LIG4 gene is a mutant type and the SW620 human colon cancer cell line in which the p53 gene is a mutant type and the LIG4 gene is a normal type were cultured in RPMI1640 (10% FBS, 1% penicillin/streptomycin) and cultured in a 60 mm plate at 1×10^5 per well for 24 hours at 37° C. Compound A, which is a novel PARP/Tankyrase simultaneous inhibitor, and olaparib, which is a competitive drug PARP inhibitor, were treated with each of 25 μM and 50 μM and were cultured for 48 hours. The number of cells was measured by trypan blue staining assay to confirm the degree of apoptosis.
In order to analyze the degree of apoptosis of Compound A, which is a novel PARP/Tankyrase simultaneous inhibitor, according to the p53 genotype and an LIG4 genotype, the present inventors treated Compounds A and B, which are novel PARP/Tankyrase simultaneous inhibitors, in the RKO and LoVo human colon cancer cell lines in which the p53 gene is a normal type and an LIG4 gene is a mutant type. Then, the number of cells was measured by trypan blue staining assay to confirm the degree of apoptosis. The RKO and LoVo human colon cancer cell lines were cultured under the same conditions as in Example 5. Compounds A and B, which are novel PARP/Tankyrase simultaneous inhibitors, were treated with 25 μM and 50 μM, respectively, for 48 hours. After 48 hours of culturing, the number of cells was measured by trypan blue staining assay to confirm the degree of apoptosis. […]

[2] = test system: LoVo human colon cancer cell line; test: Trypan blue staining apoptosis assay; format: cell-based; details: LoVo (p53 WT/LIG4 MT); 25 μM and 50 μM, 48 hours
Description: as §1
In order to analyze the degree of apoptosis of Compound A, which is a novel PARP/Tankyrase simultaneous inhibitor, according to the p53 genotype and an LIG4 genotype, the present inventors treated Compounds A and B, which are novel PARP/Tankyrase simultaneous inhibitors, in the RKO and LoVo human colon cancer cell lines in which the p53 gene is a normal type and an LIG4 gene is a mutant type. Then, the number of cells was measured by trypan blue staining assay to confirm the degree of apoptosis. The RKO and LoVo human colon cancer cell lines were cultured under the same conditions as in Example 5. […] After 48 hours of culturing, the number of cells was measured by trypan blue staining assay to confirm the degree of apoptosis.

[3] = test system: SW620 human colon cancer cell line; test: Trypan blue staining apoptosis assay; format: cell-based; details: SW620 (p53 MT/LIG4 WT); 25 μM and 50 μM, 48 hours
Description: as §1
(§2) In order to analyze the degree of apoptosis of Compounds A and B, which are novel PARP/Tankyrase simultaneous inhibitors, in a cell line RKO in which the p53 genotype is a normal type and an LIG4 genotype is a mutant type, a cell line SW620 in which the p53 genotype is a mutant type and an LIG4 genotype is a normal type, a cell line HCT8 in which the p53 genotype and an LIG4 genotype are normal, and a cell line KM12C in which the p53 genotype and an LIG4 genotype are mutant, the human colon cancer cell lines of RKO, HCT, SW620 and KM12C with different p53 genotype and LIG4 genotype were cultured in RPMI1640 (10% FBS, 1% penicillin/streptomycin) and cultured in a 60 mm plate at 1×10^5 per well for 24 hours at 37° C. Compounds A and B, which are novel PARP/Tankyrase simultaneous inhibitors, and olaparib, which is a competitive drug PARP inhibitor, and NVP-TNKS656, which is a Tankyrase inhibitor, were treated with each of 25 μM and 50 μM. After 48 hours of culturing, the number of cells was measured by trypan blue staining assay to confirm the degree of apoptosis.

[4] = test system: HCT8 human colon cancer cell line; test: Trypan blue staining apoptosis assay; format: cell-based; details: HCT8 (p53 WT/LIG4 WT); 25 μM and 50 μM, 48 hours
Description: as §2

[5] = test system: KM12C human colon cancer cell line; test: Trypan blue staining apoptosis assay; format: cell-based; details: KM12C (p53 MT/LIG4 MT); 25 μM and 50 μM, 48 hours
Description: as §2

[6] = test system: KM12C human colon cancer cell line; test: Xenograft tumor inhibition; format: in vivo, nude mouse (BALB/c-nude); details: KM12C (p53 MT/LIG4 MT) xenograft, orally 25 mpk and 50 mpk daily
Description: (§3) In order to analyze the tumor inhibition effect on Compound A, which is a novel PARP/Tankyrase simultaneous inhibitor, in an in vivo animal model when a p53 genotype and an LIG4 genotype are mutant types, the present inventors transplanted the KM12C human colon cancer cell line in which a p53 genotype and an LIG4 genotype are mutant types into a 6-week-old nude mouse (BALB/c-nude, purchased from the central experimental animal) and administered with Compound A, which is a novel PARP/Tankyrase simultaneous inhibitor, and olaparib, which is a competitive drug PARP inhibitor. Then, the size of tumor was measured to confirm the degree of tumor inhibition effect. The conditions and methods of the experiment were as follows: KM12C human colon cancer cell line in which a p53 genotype and an LIG4 genotype are mutant types was cultured in RPMI1640 (10% FBS, 1% penicillin/streptomycin). When the size of the tumor reached 100 mm^3 after being transplanted into a nude mouse per 1×10^7, Compound A, which is a novel PARP/Tankyrase simultaneous inhibitor, and olaparib, which is a competitive drug PARP inhibitor, were orally administered at 25 mpk and 50 mpk daily for a total of 18 days. The size of a tumor was measured every three days. After the completion of drug administration, the tumors were harvested and weighed.
as §3, with “on Compound B, which is” for “on Compound A, which is”, “with Compound B, which is” for “with Compound A, which is”, “PARP/Tankyrase simultaneous inhibitor. Then,” for “PARP/Tankyrase simultaneous inhibitor, and olaparib, which is a competitive drug PARP inhibitor. Then,”, “1×10^7, Compound B, which is” for “1×10^7, Compound A, which is”, “simultaneous inhibitor, was orally administered” for “simultaneous inhibitor, and olaparib, which is a competitive drug PARP inhibitor, were orally administered”, “total of 15 days. The” for “total of 18 days. The”

Row | Structure (SMILES) | degree of apoptosis (trypan blue cell count) [1] | degree of apoptosis (trypan blue cell count) [2] | degree of apoptosis (trypan blue cell count) [3] | degree of apoptosis (trypan blue cell count) [4] | degree of apoptosis (trypan blue cell count) [5] | tumor size ([6]; 18 days) | tumor weight ([6]; 18 days) | tumor size ([6]; 15 days) | tumor weight ([6]; 15 days)
1 | CCOc1cc(CN(C)C)cc2[nH]c(=O)c3c(c12)NCCC3 [Compound A, 8-[(dimethylamino)methyl]-10-ethoxy-1,2,3,4-tetrahydrobenzo[h][1,6]naphthyridin-5(6H)-one] | apoptosis was induced; also recorded: possible to observe the apoptosis | apoptosis was induced | low apoptosis effect; also recorded: No apoptosis occurred | No apoptosis occurred | No apoptosis occurred | no change | no change |  | 
2 | N#Cc1ccc(N2CCN(Cc3ccc4c5c(c(=O)[nH]c4c3)CCCN5)CC2)nc1 [Compound B, 6-{4-[(5-oxo-1,2,3,4,5,6-hexahydrobenzo[h][1,6]naphthyridin-8-yl)methyl]piperazin-1-yl}nicotinonitrile] | apoptosis effect is high by virtue of Compound B as compared to Compound A; also recorded: possible to observe the apoptosis | apoptosis effect is high by virtue of Compound B as compared to Compound A | No apoptosis occurred | No apoptosis occurred | No apoptosis occurred |  |  | no change | no change
3 | O=C(c1cc(Cc2n[nH]c(=O)c3ccccc23)ccc1F)N1CCN(C(=O)C2CC2)CC1 [olaparib, reference compound] | no apoptosis effect was shown; also recorded: no change in apoptosis | no apoptosis effect was shown | low apoptosis effect; also recorded: No apoptosis occurred | No apoptosis occurred | No apoptosis occurred | no change | no change |  | 
